Results taken from ChEMBL document CHEMBL2157998, “Synthesis and biological evaluation of new phenothiazine derivatives bearing a pyrazole unit as protein farnesyltransferase inhibitors” (Bioorg Med Chem Lett, 2012).
Active and inactive are the calls of the source. The rule behind the calls is not given here.

Key:
CCRF-CEM = test: Growth inhibition of human CCRF-CEM cells at 10 uM after 48 hrs by single dose SRB assay; format: functional; settings: for inhibition of growth at 10 µM: read-out: GI
MDA-MB-468 = test: Growth inhibition of human MDA-MB-468 cells at 10 uM after 48 hrs by single dose SRB assay; format: functional; settings: for inhibition of growth at 10 µM: MDA-MB-468, 48 h, read-out: GI
SW-620 = test: Growth inhibition of human SW620 cells at 10 uM after 48 hrs by single dose SRB assay; format: functional
LOX IMVI = test: Growth inhibition of human LOXIMVI cells at 10 uM after 48 hrs by single dose SRB assay; format: functional
SK-MEL-5 = test: Growth inhibition of human SK-MEL-5 cells at 10 uM after 48 hrs by single dose SRB assay; format: functional
U-251 = test: Growth inhibition of human U251 cells at 10 uM after 48 hrs by single dose SRB assay; format: functional; settings: for inhibition of growth at 10 µM: U-251, 48 h, read-out: GI
OVCAR-8 = test: Growth inhibition of human OVCAR8 cells at 10 uM after 48 hrs by single dose SRB assay; format: functional; settings: for inhibition of growth at 10 µM: OVCAR-8, 48 h, read-out: GI
ACHN = test: Growth inhibition of human ACHN cells at 10 uM after 48 hrs by single dose SRB assay; format: functional
UACC-62 = test: Growth inhibition of human UACC62 cells at 10 uM after 48 hrs by single dose SRB assay; format: functional; settings: for inhibition of growth at 10 µM: UACC-62, 48 h, read-out: GI
NCI/ADR-RES = test: Growth inhibition of human NCI/ADR-RES cells at 10 uM after 48 hrs by single dose SRB assay; format: functional; settings: for inhibition of growth at 10 µM: read-out: GI
HL-60(TB) = test: Growth inhibition of human HL-60(TB) cells at 10 uM after 48 hrs by single dose SRB assay; format: functional; settings: for inhibition of growth at 10 µM: HL-60, 48 h, read-out: GI
RPMI-8226 = test: Growth inhibition of human RPMI8226 cells at 10 uM after 48 hrs by single dose SRB assay; format: functional
HCT-15 = test: Growth inhibition of human HCT15 cells at 10 uM after 48 hrs by single dose SRB assay; format: functional
[1] = biological target: T1, Protein farnesyltransferase (Homo sapiens, UniProt P49354+P49356); test: Inhibition of recombinant human FTase using dansyl-GCVLS as substrate at 100 uM after 15 mins by fluorimetric analysis; format: protein-complex assay
[2] = (§1) Growth inhibition of human […] cells at 10 uM after 48 hrs by single dose SRB assay; format: functional; settings: read-out: GI
MDA-MB-231 = test: Growth inhibition of human MDA-MB-231 cells at 10 uM after 48 hrs by single dose SRB assay; format: functional
NCI-H522 = test: Growth inhibition of human NCI-H522 cells at 10 uM after 48 hrs by single dose SRB assay; format: functional; settings: for inhibition of growth at 10 µM: NCI-H522, 48 h, read-out: GI
UO-31 = test: Growth inhibition of human UO31 cells at 10 uM after 48 hrs by single dose SRB assay; format: functional; settings: for inhibition of growth at 10 µM: UO-31, 48 h, read-out: GI
HT-29 = test: Growth inhibition of human HT-29 cells at 10 uM after 48 hrs by single dose SRB assay; format: functional
MOLT-4 = test: Growth inhibition of human MOLT4 cells at 10 uM after 48 hrs by single dose SRB assay; format: functional; settings: for inhibition of growth at 10 µM: MOLT-4, 48 h, read-out: GI
EKVX = test: Growth inhibition of human EKVX cells at 10 uM after 48 hrs by single dose SRB assay; format: functional; settings: for inhibition of growth at 10 µM: read-out: GI
OVCAR-3 = test: Growth inhibition of human OVCAR3 cells at 10 uM after 48 hrs by single dose SRB assay; format: functional
SNB-19 = test: Growth inhibition of human SNB19 cells at 10 uM after 48 hrs by single dose SRB assay; format: functional
SN12C = test: Growth inhibition of human SN12C cells at 10 uM after 48 hrs by single dose SRB assay; format: functional; settings: for inhibition of growth at 10 µM: read-out: GI
CAKI-1 = test: Growth inhibition of human Caki1 cells at 10 uM after 48 hrs by single dose SRB assay; format: functional; settings: for inhibition of growth at 10 µM: CAKI-1, 48 h, read-out: GI
PC-3 = test: Growth inhibition of human PC3 cells at 10 uM after 48 hrs by single dose SRB assay; format: functional; settings: PC-3, 48 h, read-out: GI
NCI-H226 = test: Growth inhibition of human NCI-H226 cells at 10 uM after 48 hrs by single dose SRB assay; format: functional; settings: for inhibition of growth at 10 µM: NCI-H226, 48 h, read-out: GI
HOP-92 = test: Growth inhibition of human HOP92 cells at 10 uM after 48 hrs by single dose SRB assay; format: functional; settings: HOP-92, 48 h, read-out: GI
SF-295 = test: Growth inhibition of human SF295 cells at 10 uM after 48 hrs by single dose SRB assay; format: functional
HCT166 = test: as §1; format: functional
A498 = test: Growth inhibition of human A498 cells at 10 uM after 48 hrs by single dose SRB assay; format: functional; settings: A498, 48 h, read-out: GI
[3] = biological target: T1, Protein farnesyltransferase; test: Inhibition of recombinant human FTase using dansyl-GCVLS as substrate after 15 mins by fluorimetric analysis; format: protein-complex assay

SMILES	inhibition of growth at 10 µM (CCRF-CEM) [%]	inhibition of growth at 10 µM (MDA-MB-468) [%]	growth inhibition (GI) (SW-620)	growth inhibition (GI) (LOX IMVI)	growth inhibition (GI) (SK-MEL-5)	growth inhibition (GI) (U-251)	growth inhibition (GI) (OVCAR-8)	growth inhibition (GI) (ACHN)	inhibition of growth at 10 µM (HL-60(TB)) [%]	growth inhibition (GI) (RPMI-8226)	growth inhibition (GI) (HCT-15)	inhibition [1] [%]	growth inhibition (GI) (MDA-MB-231)	growth inhibition (GI) (HT-29)	growth inhibition (GI) (OVCAR-3)	growth inhibition (GI) (SNB-19)	inhibition of growth at 10 µM (PC-3) [%]	inhibition of growth at 10 µM (HOP-92) [%]	growth inhibition (GI) (SF-295)	inhibition of growth at 10 µM (UO-31) [%]	further results
Cc1c2c(nn1C(=O)CCN1c3ccccc3Sc3ccccc31)CCCC2	12.8	11.2	inactive	inactive	inactive	inactive	inactive	inactive	19.6	inactive	inactive	0	inactive	inactive	inactive	inactive	13	31.6	inactive	–	inhibition of growth at 10 µM (UACC-62): 7.1%; inhibition of growth at 10 µM (NCI/ADR-RES): 8.2%; inhibition of growth at 10 µM [2]: 12.4%; inhibition of growth at 10 µM (NCI-H522): 9.1%; growth inhibition (GI) (UO-31): inactive; growth inhibition (GI) (MOLT-4): inactive; inhibition of growth at 10 µM (EKVX): 8.3%; growth inhibition (GI) (SN12C): inactive; growth inhibition (GI) (CAKI-1): inactive; inhibition of growth at 10 µM (NCI-H226): 12.8%
Cc1c2c(nn1CC(=O)N1c3ccccc3Sc3ccccc31)CCCC2	6.5	–	inactive	inactive	inactive	–	inactive	inactive	–	–	–	0	inactive	inactive	inactive	inactive	–	–	inactive	10	growth inhibition (GI) (MDA-MB-468): inactive; inhibition of growth at 10 µM (U-251): 10.2%; inhibition of growth at 10 µM (UACC-62): 13.2%; inhibition of growth at 10 µM (NCI/ADR-RES): 6.2%; growth inhibition (GI) (HL-60(TB)): inactive; inhibition of growth at 10 µM (RPMI-8226; RPMI-8226, 48 h, read-out: GI): 16.2%; inhibition of growth at 10 µM (HCT-15; HCT-15, 48 h, read-out: GI): 8%; inhibition of growth at 10 µM [2]: 8.4%; inhibition of growth at 10 µM (NCI-H522): 15.2%; inhibition of growth at 10 µM (MOLT-4): 20.1%; growth inhibition (GI) (EKVX): inactive; inhibition of growth at 10 µM (SN12C): 5.6%; inhibition of growth at 10 µM (CAKI-1): 8.1%; growth inhibition (GI) (NCI-H226): inactive
Cc1cc(-c2ccccc2)n(C(=O)CN2c3ccccc3Sc3ccccc32)n1	–	–	inactive	inactive	inactive	–	–	inactive	31.5	inactive	inactive	0	inactive	inactive	inactive	inactive	13	14	inactive	9	growth inhibition (GI) (CCRF-CEM): inactive; growth inhibition (GI) (MDA-MB-468): inactive; inhibition of growth at 10 µM (U-251): 9.2%; inhibition of growth at 10 µM (OVCAR-8): 6.3%; growth inhibition (GI) (UACC-62): inactive; growth inhibition (GI) (NCI/ADR-RES): inactive; growth inhibition (GI) (HCT166): inactive; growth inhibition (GI) (NCI-H522): inactive; inhibition of growth at 10 µM (A498): 17.3%; inhibition of growth at 10 µM (MOLT-4): 9.6%; inhibition of growth at 10 µM (EKVX): 5%; inhibition of growth at 10 µM (SN12C): 7.2%; inhibition of growth at 10 µM (CAKI-1): 16.2%; inhibition of growth at 10 µM (NCI-H226): 7.2%
N#Cc1cnn(CC(=O)N2c3ccccc3Sc3ccccc32)c1N	–	11.7	inactive	inactive	inactive	inactive	–	inactive	46.2	inactive	inactive	94.9	inactive	inactive	inactive	inactive	9.9	12.5	–	6.4	growth inhibition (GI) (CCRF-CEM): inactive; inhibition of growth at 10 µM (OVCAR-8): 5.5%; IC50 [3]: 17.2 µM; growth inhibition (GI) (UACC-62): inactive; growth inhibition (GI) (NCI/ADR-RES): inactive; growth inhibition (GI) (HCT166): inactive; growth inhibition (GI) (NCI-H522): inactive; inhibition of growth at 10 µM (A498): 14%; growth inhibition (GI) (EKVX): inactive; growth inhibition (GI) (SN12C): inactive; growth inhibition (GI) (CAKI-1): inactive; growth inhibition (GI) (NCI-H226): inactive; inhibition of growth at 10 µM (SF-295; SF-295, 48 h, read-out: GI): 13.1%
